# Assay results taken from paper PMC11106745 (ACS Chemical Biology, 2024).
# Where “and” joins values, the source holds several entries; their conditions need not be identical. Equal values may be shown once. Read-outs that look alike come from different tables or passages of the source.
# Columns and labels:
# SARS-CoV-2 Mac1 [1] = biological target: T1, SARS-CoV-2 Mac1 (Severe acute respiratory syndrome coronavirus 2, UniProt P0DTD1); test: biochemical; format: binding; details: IC50
# CHIKV Mac [2] = biological target: T2, CHIKV Mac (Chikungunya virus, UniProt Q8JUX6); test: biochemical; format: binding
# VEEV Mac [3] = biological target: T3, VEEV Mac (Venezuelan equine encephalitis virus, UniProt P27282); test: biochemical; format: binding
# MERS-CoV Mac1 [4] = biological target: T4, MERS-CoV Mac1 (Middle East respiratory syndrome-related coronavirus, UniProt K9N7C7); test: biochemical; format: binding
# MERS-CoV Mac1 [5] = biological target: T4, MERS-CoV Mac1; test: biochemical; format: binding; remark: listed apart in the source
# SARS-CoV-2 Mac1 [6] = biological target: T1, SARS-CoV-2 Mac1; test: biochemical; format: binding
# CHIKV Mac [7] = biological target: T2, CHIKV Mac; test: biochemical; format: binding; remark: listed apart in the source
# VEEV Mac [8] = biological target: T3, VEEV Mac; test: biochemical; format: binding; remark: listed apart in the source
# MacroD1 = biological target: T5, MacroD1 (Homo sapiens, UniProt Q9BQ69); test: IC50 curves of binding to MacroD1 (Figure S2); details: Figure S2, fitted
# T5 construct: made in house
# T5 sequence (Q9BQ69 1-325): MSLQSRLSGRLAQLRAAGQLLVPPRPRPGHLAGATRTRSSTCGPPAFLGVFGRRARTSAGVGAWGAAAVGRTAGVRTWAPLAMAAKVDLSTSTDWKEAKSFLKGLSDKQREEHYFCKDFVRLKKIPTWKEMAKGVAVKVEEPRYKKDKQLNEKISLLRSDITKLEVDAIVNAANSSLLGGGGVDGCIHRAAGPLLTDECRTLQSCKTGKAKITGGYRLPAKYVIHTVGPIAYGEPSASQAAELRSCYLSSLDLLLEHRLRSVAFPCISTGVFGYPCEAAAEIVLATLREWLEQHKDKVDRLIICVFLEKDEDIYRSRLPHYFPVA
# MacroD2 = biological target: T6, MacroD2 (Homo sapiens, UniProt A1Z1Q3); test: IC50 curves of binding to MacroD2 (Figure S2); details: Figure S2, fitted
# T6 construct: made in house
# T6 sequence (A1Z1Q3 1-425): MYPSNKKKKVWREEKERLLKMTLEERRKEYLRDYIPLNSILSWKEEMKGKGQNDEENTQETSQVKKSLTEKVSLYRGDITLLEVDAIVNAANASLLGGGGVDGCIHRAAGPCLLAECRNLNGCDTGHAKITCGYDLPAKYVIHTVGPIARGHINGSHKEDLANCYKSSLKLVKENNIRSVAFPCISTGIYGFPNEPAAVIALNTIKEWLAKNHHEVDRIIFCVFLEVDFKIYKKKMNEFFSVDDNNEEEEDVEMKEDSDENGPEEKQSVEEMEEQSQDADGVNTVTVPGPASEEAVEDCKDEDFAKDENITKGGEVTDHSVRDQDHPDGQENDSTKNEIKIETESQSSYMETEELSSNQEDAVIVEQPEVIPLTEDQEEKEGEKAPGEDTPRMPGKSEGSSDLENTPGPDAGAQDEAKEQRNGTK
# VEEV Mac [9] = biological target: T3, VEEV Mac; test: biochemical; format: binding; remark: listed apart in the source
# SARS-CoV-2 Mac1 [10] = biological target: T1, SARS-CoV-2 Mac1; test: biochemical; format: binding; remark: listed apart in the source
# CHIKV Mac [11] = biological target: T2, CHIKV Mac; test: biochemical; format: binding; remark: listed apart in the source
# MERS-CoV Mac1 [12] = biological target: T4, MERS-CoV Mac1; test: biochemical; format: binding; remark: listed apart in the source
# SARS-CoV-2 Mac1 [13] = biological target: T1, SARS-CoV-2 Mac1; details: cited from earlier work
# SARS-CoV-2 Mac1 [14] = biological target: T1, SARS-CoV-2 Mac1; details: cited from earlier work; remark: listed apart in the source
# T3 sequence (P27282 1330-1489 limits assumed): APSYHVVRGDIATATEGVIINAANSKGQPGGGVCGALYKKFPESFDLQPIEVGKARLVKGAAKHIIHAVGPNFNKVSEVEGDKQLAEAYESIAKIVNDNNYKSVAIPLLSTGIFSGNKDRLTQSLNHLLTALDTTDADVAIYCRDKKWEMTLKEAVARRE
# T2 sequence (Q8JUX6 1334-1493 limits assumed): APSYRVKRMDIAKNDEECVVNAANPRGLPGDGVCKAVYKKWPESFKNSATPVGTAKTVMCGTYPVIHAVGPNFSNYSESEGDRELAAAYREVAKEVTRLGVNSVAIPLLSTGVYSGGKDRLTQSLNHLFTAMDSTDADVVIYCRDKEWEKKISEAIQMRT
# T4 sequence (K9N7C7 1110-1276 limits assumed): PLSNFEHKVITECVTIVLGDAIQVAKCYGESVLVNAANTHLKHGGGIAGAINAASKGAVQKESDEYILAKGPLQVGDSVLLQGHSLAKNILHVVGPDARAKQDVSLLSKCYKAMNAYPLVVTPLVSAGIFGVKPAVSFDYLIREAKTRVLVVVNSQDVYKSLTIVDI
compound,measurement,setting,value
N#C[C@@]1(c2ccc3c(N)ncnn23)O[C@H](COP(=O)(O)OP(=O)(O)OC[C@H]2O[C@H](Oc3ccc(Cn4cc(COCCOCCOCCOCCNC(=O)CCCC[C@@H]5SC[C@@H]6NC(=O)N[C@@H]65)nn4)cc3)[C@H](O)[C@@H]2O)[C@@H](O)[C@H]1O [biotin-Ph-NDPr],IC50,SARS-CoV-2 Mac1 [1],11 nM
same,kon,CHIKV Mac [2],190000 ± 6000 M⁻¹ s⁻¹
same,Kd,CHIKV Mac [2]; Kd,570 ± 20 nM
same,koff,CHIKV Mac [2]; read-out: kdis,0.11 ± 0.003 s⁻¹
same,fold decrease in Kd compared to biotin-ADPr,VEEV Mac [3],400 fold
same,kon,VEEV Mac [3],820000 ± 7000 M⁻¹ s⁻¹
same,koff,VEEV Mac [3]; read-out: kdis,0.014 ± 6e-05 s⁻¹
same,fold decrease in Kd compared to biotin-ADPr,MERS-CoV Mac1 [4],~100 fold
same,kon,MERS-CoV Mac1 [4],1.8e+06 ± 10000 M⁻¹ s⁻¹
same,Kd,MERS-CoV Mac1 [4]; Kd,17.2 nM and 17 nM
same,koff,MERS-CoV Mac1 [4]; read-out: kdis,0.031 ± 0.0002 s⁻¹
same,IC50,MERS-CoV Mac1 [5],100 nM
same,Kd,SARS-CoV-2 Mac1 [6],24 nM
same,fold more potent than biotin-ADPr based on Kd,SARS-CoV-2 Mac1 [6],~1000 fold
same,kdis fold smaller than that of biotin-ADPr,SARS-CoV-2 Mac1 [6],more than 100 fold
same,kon,SARS-CoV-2 Mac1 [6],300000 ± 3000 M⁻¹ s⁻¹
same,koff,SARS-CoV-2 Mac1 [6]; read-out: kdis,0.0071 s⁻¹
same,IC50,CHIKV Mac [7],860 nM
N#CC1(c2ccc3c(N)ncnn23)OC(COP(=O)(O)OP(=O)(O)OCC2OC(O)C(O)C2O)C(O)C1O (stereo not shown) [NDPr],IC50,VEEV Mac [8],510 nM
same,IC50,SARS-CoV-2 Mac1 [1],800 nM and 170 nM and 290 nM
same,IC50,MacroD1,> 10000 nM
same,IC50,MERS-CoV Mac1 [5],2900 nM
same,IC50,MacroD2,> 10000 nM
same,IC50,CHIKV Mac [7],920 nM
"CN(C)c1ccc2c(c1)Oc1cc(N(C)C)ccc1C21OC(=O)c2cc(C(=O)NCCCCCCNC(=O)CCc3cn([C@H]4O[C@H](COP(=O)(O)OP(=O)(O)OC[C@H]5O[C@@H](n6cnc7c(N)ncnc76)[C@H](O)[C@@H]5O)[C@@H](O)[C@H]4O)nn3)ccc21 [TAMRA-ADPr, reference compound]",Kd,VEEV Mac [9],1700 nM
same,Kd,SARS-CoV-2 Mac1 [10]; Kd,2100 nM
same,Kd,CHIKV Mac [11],7200 nM
same,Kd,MERS-CoV Mac1 [12],830 nM
CN(C)c1ccc2c(c1)Oc1cc(N(C)C)ccc1C21OC(=O)c2cc(C(=O)NCCCCCCNC(=O)CCc3cn([C@H]4O[C@H](COP(=O)(O)OP(=O)(O)OC[C@H]5O[C@@](C#N)(c6ccc7c(N)ncnn67)[C@H](O)[C@@H]5O)[C@@H](O)[C@H]4O)nn3)ccc21 [TAMRA-NDPr],Kd,VEEV Mac [9],39 nM
same,fold more potent than TAMRA-ADPr,SARS-CoV-2 Mac1 [10],over 100 fold
same,Kd,SARS-CoV-2 Mac1 [10]; Kd,15 nM
same,fold affinity improvement over TAMRA-ADPr,CHIKV Mac [11],more than 30 fold
same,Kd,CHIKV Mac [11],208 nM and 210 nM
same,Kd,MERS-CoV Mac1 [12],130 nM
COC(=O)c1c(NC(=O)[C@@H]2CCC[C@@H](C(=O)O)C2)sc2c1CCCCCC2 [compound 27],IC50,SARS-CoV-2 Mac1 [13],2100 nM
CN(C)c1ccc2c(c1)Oc1cc(N(C)C)ccc1C21OC(=O)c2cc(C(=O)NCCCCCCNC(=O)CCc3cn(Cc4ccc(O[C@H]5O[C@H](COP(=O)(O)OP(=O)(O)OC[C@H]6O[C@@](C#N)(c7ccc8c(N)ncnn78)[C@H](O)[C@@H]6O)[C@@H](O)[C@H]5O)cc4)nn3)ccc21 [TAMRA-Ph-NDPr],Kd,VEEV Mac [9],10 nM
same,fold more potent than TAMRA-ADPr,SARS-CoV-2 Mac1 [10],over 100 fold
same,Kd,SARS-CoV-2 Mac1 [10]; Calculated Kd,2.3 nM
same,Kd,SARS-CoV-2 Mac1 [10]; Kd,5.3 nM
same,Kd,CHIKV Mac [11],810 nM
same,Kd,MERS-CoV Mac1 [12],11 nM
Nc1ncnc2c1ncn2C1OC(COP(=O)(O)OP(=O)(O)OCC2OC(Oc3ccc([N+](=O)[O-])cc3)C(O)C2O)C(O)C1O (stereo not shown) [pNP-ADPr],IC50,SARS-CoV-2 Mac1 [14],370 nM
same,fold more potent than ADPr,SARS-CoV-2 Mac1 [14],> 20 fold
